Data: patent US20140045890A1, “NOVEL COMPOUNDS” (SYNGENTA PARTICIPATIONS AG, priority 2011, published 2014)

What was measured:
Phytophthora infestans = experiment: whole plant or invertebrate; type: in vivo; conditions: in Solanum lycopersicum, foliar, read-out: inhibit fungal infestation (percent disease control compared to untreated)
Plasmopara viticola = Plasmopara viticola / grape / leaf disc preventative; type: in vivo; conditions: foliar, grape vine leaf disks, inoculated 1 day after application, assessed 6-8 days after application, read-out: inhibit fungal infestation (percent disease control compared to untreated)
[1] = system: Blumeria qraminis f. sp. tritici (Erysiphe qraminis f. sp. tritici); experiment: Blumeria graminis f. sp. tritici / wheat / leaf disc preventative (powdery mildew on wheat); type: in vivo; conditions: foliar, wheat leaf segments cv. Kanzler, inoculated 1 day after application, assessed 6-8 days after application, read-out: inhibit fungal infestation (percent disease control compared to untreated)
[2] = system: Phaeosphaeria nodorum (Septoria nodorum); experiment: Phaeosphaeria nodorum (Septoria nodorum) / wheat / leaf disc preventative (glume blotch); type: in vivo; conditions: Parastagonospora nodorum, foliar, wheat leaf segments cv. Kanzler, inoculated 2 days after application, assessed 5-7 days after application, read-out: inhibit fungal infestation (percent disease control compared to untreated)
Pythium ultimum = Pythium ultimum / liquid culture (seedling damping off); type: cell-based; conditions: Globisporangium ultimum, liquid culture in PDB, 24° C., 2-3 days after application, read-out: inhibit fungal infestation (inhibition of growth determined photometrically)

SMILES | inhibition at 200 ppm (Phytophthora infestans) | inhibition at 200 ppm (Plasmopara viticola) | inhibition at 200 ppm [1] | inhibition at 200 ppm [2] | inhibition at 200 ppm (Pythium ultimum) | melting point
C#Cc1cnc2ccc(OC(SC)C(=O)NC(C)(C)c3cc(C)ccn3)cc2c1 (stereo not drawn) [Compound 18, 2-[(3-ethynyl-6-quinolyl)oxy]-N-[1-methyl-1-(4-methyl-2-pyridyl)ethyl]-2-methylsulfanyl-acetamide] | ≥ 80% | ≥ 80% | ≥ 80% | ≥ 80% | ≥ 80% | 63 °C
C#Cc1cnc2ccc(OC(SC)C(=O)NC(C)(C)c3cccc(C)n3)cc2c1 (stereo not drawn) [Compound 15] | ≥ 80% | ≥ 80% | ≥ 80% | ≥ 80% | ≥ 80% | 148 °C
C#Cc1cnc2c(Cl)cc(OC(OC)C(=O)NC(C)(C)c3ccccn3)cc2c1 (stereo not drawn) [Compound 12] | ≥ 80% | ≥ 80% | ≥ 80% | ≥ 80% | ≥ 80% | 108 °C
C#Cc1cnc2ccc(OC(CC)C(=O)NC(C)(C)c3ccccn3)cc2c1 (stereo not drawn) [Compound 13] | ≥ 80% | ≥ 80% | ≥ 80% | ≥ 80% | ≥ 80% | 96 °C
CSC(Oc1ccc2ncc(Br)cc2c1)C(=O)NC(C)(C)c1ccccn1 (stereo not drawn) [Compound 8] | ≥ 80% | ≥ 80% | ≥ 80% | ≥ 80% | ≥ 80% | 105 °C
C#Cc1cnc2ccc(OC(SC)C(=O)NC(C)(C)c3nccs3)cc2c1 (stereo not drawn) [Compound 32] | ≥ 80% | ≥ 80% | ≥ 80% | ≥ 80% | ≥ 80% | 123 °C
C#Cc1cnc2c(C)cc(OC(SC)C(=O)NCc3nc(C)cs3)cc2c1 (stereo not drawn) [Compound 24] | ≥ 80% | ≥ 80% | ≥ 80% | ≥ 80% | ≥ 80% | 148 °C
C#Cc1cnc2c(F)cc(OC(SC)C(=O)NC(C)(C)c3ccccn3)cc2c1 (stereo not drawn) [Compound 11] | ≥ 80% | ≥ 80% | ≥ 80% | ≥ 80% | ≥ 80% | 125 °C
C#Cc1cnc2ccc(OC(SC)C(=O)NC(C)(CC)c3nc(C)cs3)cc2c1 (stereo not drawn) [Compound 20] | ≥ 80% | ≥ 80% | ≥ 80% | ≥ 80% | ≥ 80% | 120 °C
C#Cc1cnc2c(C)cc(OC(SC)C(=O)NC(C)(C)c3ccccn3)cc2c1 (stereo not drawn) [Compound 7] | ≥ 80% | ≥ 80% | ≥ 80% | ≥ 80% | ≥ 80% | 113 °C
C=Cc1cnc2c(C)cc(OC(OC)C(=O)NC(C)(C)c3nc(C)cs3)cc2c1 (stereo not drawn) [Compound 135] | ≥ 80% | ≥ 80% | ≥ 80% | ≥ 80% | ≥ 80% | 139 °C
C#Cc1cnc2c(Cl)cc(OC(SC)C(=O)NC(C)(C)c3ccccn3)cc2c1 (stereo not drawn) [Compound 10] | ≥ 80% | ≥ 80% | ≥ 80% | ≥ 80% | ≥ 80% | 153 °C
